Assay results reported in the NIST ThermoML archive (doi:10.1016/j.jct.2009.01.008).

Assays:
[1] = 101 kPa, Liquid, Linear variable-path acoustic interferometer
[2] = refractive index (Na D-line) (dimensionless); conditions: 298.15 K; 101.33 kPa; Liquid
[3] = xn = mol fraction of the nth substance listed; conditions: 101 kPa, Liquid, Linear variable-path acoustic interferometer

CC(C)CC(C)(C)C [2,2,4-trimethylpentane]
[1]
Conditions	speed of sound [m/s]
298.15 K	1082.8
308.15 K	1041.1
318.15 K	1000
328.15 K	958.4

Conditions	refractive index
[2]	1.38905

CC(C)CC(C)(C)C [2,2,4-trimethylpentane] + COC(C)(C)C
[3], x2 = 0
Conditions	speed of sound [m/s]
298.15 K	1082.8
308.15 K	1041.1
318.15 K	1000
328.15 K	958.4

CC(C)CC(C)(C)C [2,2,4-trimethylpentane] + Cc1ccccc1
speed of sound [m/s], [3]
Conditions	298.15 K	308.15 K	318.15 K	328.15 K
x2 = 0	1082.8	1041.1	1000	958.4
x2 = 0.07776	1092.7	1051.1	1009.9	969.3
x2 = 0.1405	1101.3	1059.7	1018.5	977.9
x2 = 0.2059	1110.8	1069.2	1028.1	987.5
x2 = 0.2671	1120.3	1078.7	1037.6	997
x2 = 0.3385	1132.3	1090.7	1049.5	1008.8
x2 = 0.3976	1143	1101.3	1060.1	1019.4
x2 = 0.4724	–	1115.6	1074.3	–
x2 = 0.5328	1170	–	1086.9	1046.1
x2 = 0.5966	1184.2	1142.3	1100.9	1060
x2 = 0.6699	1201.9	1159.9	1118.4	1077.5
x2 = 0.7302	1217.5	1175.4	–	1092.8
x2 = 0.7895	–	–	1150.3	–
x2 = 0.8001	1237.5	1195.3	1153.6	1112.4
x2 = 0.8681	1258.4	1216.1	1174.2	1132.8
x2 = 0.8691	1259	–	–	–
x2 = 0.9539	1288.1	1245.4	1203.3	–

COC(C)(C)C [2-methoxy-2-methylpropane]
[1]
Conditions	speed of sound [m/s]
298.15 K	1036.4
308.15 K	990.8
318.15 K	945.3

Conditions	refractive index
[2]	1.36648

COC(C)(C)C [2-methoxy-2-methylpropane] + CC(C)CC(C)(C)C
speed of sound [m/s], [3]
Conditions	298.15 K	308.15 K	318.15 K	328.15 K
x1 = 0.05551	1079.2	1037.5	–	–
x1 = 0.08857	1077.1	–	993.7	952.7
x1 = 0.1305	1074.8	1032.8	991.2	–
x1 = 0.1971	1071	1028.7	986.9	945.5
x1 = 0.2599	1067.4	1024.9	983	941.5
x1 = 0.3284	1063.8	1021	978.9	–
x1 = 0.3315	–	–	–	936.4
x1 = 0.4078	1059.5	1016.4	973.8	–
x1 = 0.4756	1056.1	1012.7	–	–
x1 = 0.5629	1052	1008.2	964.9	922.2
x1 = 0.6184	1049.5	–	–	–
x1 = 0.6831	1046.7	1002.5	958.7	915.2
x1 = 0.7456	1044.1	995.5	955.6	–
x1 = 0.7644	1043.4	–	–	–
x1 = 0.8143	1041.7	–	–	–
x1 = 0.8155	1041.5	996.6	952.4	–
x1 = 0.8675	1039.8	994.7	950	–
x1 = 0.9376	1037.8	992.5	947.4	–
x1 = 1	1036.4	990.8	945.3	–

COC(C)(C)C [2-methoxy-2-methylpropane] + Cc1ccccc1
speed of sound [m/s], [3]
Conditions	298.15 K	308.15 K	318.15 K	328.15 K
x1 = 0.1021	1277.4	1234.5	1192	1149.9
x1 = 0.2035	1250	1206.7	1163.9	1121.6
x1 = 0.2591	1234.8	1191.3	1148.5	1106.1
x1 = 0.3321	1215.2	1171.6	1128.4	1086.2
x1 = 0.4008	1196.7	1152.9	1109.5	1066.9
x1 = 0.4665	–	–	–	1049.4
x1 = 0.5323	–	–	–	1030.2
x1 = 0.5894	1145.8	1101.5	1057.6	–
x1 = 0.664	1125.8	1081.2	1037	–
x1 = 0.7257	–	–	1020.4	976.5
x1 = 0.7956	–	1045.7	1001	958.4
x1 = 0.8643	1072.3	1027.1	982.4	–
x1 = 0.9025	1062.2	1016.8	971.6	–
x1 = 1	1036.4	990.8	945.3	–

Cc1ccccc1 [toluene]
[1]
Conditions	speed of sound [m/s]
298.15 K	1305.4
308.15 K	1262.6
318.15 K	1220.3
328.15 K	1178.6

Conditions	refractive index
[2]	1.4941

Cc1ccccc1 [toluene] + CC(C)CC(C)(C)C
[3], x1 = 1
Conditions	speed of sound [m/s]
298.15 K	1305.4
308.15 K	1262.6
318.15 K	1220.3
328.15 K	1178.6

Cc1ccccc1 [toluene] + COC(C)(C)C
[3], x2 = 0
Conditions	speed of sound [m/s]
298.15 K	1305.4
308.15 K	1262.6
318.15 K	1220.3
328.15 K	1178.6
